Drawing on PubChem BioAssay (NCI), this text covers GI50 and TGI for 13 compounds.

Common to all, as to assay: NCI tumour cell line growth inhibition, 48 h
The subject of assay [1] is TK-10 renal.
In assay [2] the test system is SF-268 CNS.
Assay [3] deals with HCT-15 colon.
Assay [4] has as its system HS 578T breast.
In assay [5] the test system is MDA-MB-231 breast.
Assay [6] relates to SF-539 CNS.
The test system of assay [7] is SK-MEL-5 melanoma.
Assay [8] has as its system RPMI-8226 leukemia.
The test system of assay [9] is BT-549 breast.
Assay [10] has as its system EKVX NSCLC.

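Test compounds were applied to cells in 96-well plates for 48 hours at 5 doses. The concentration for 50% growth inhibition is given as GI50. TGI: concentration producing complete growth inhibition.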 Some results are limits rather than exact numbers.

On to `c1cc(OCCN2CCCCCC2)ccc1CNc1ccc2nc(CCC3CCCCC3)[nH]c2c1`, for which the GI50 in [1] was 3.18 µM; in [2], 2.42 µM; in assay [3], 1.59 µM; in assay [4], 1.7 µM; in assay [5], 1.56 µM; in assay [6] it was 1.63 µM. The GI50 in [7] is 1.74 µM; in assay [8], 1.5 µM; in assay [9], 1.83 µM; in assay [10], 2.49 µM. Besides, the TGI in assay [1] stood at 10.9 µM; in [2], 9.2 µM; in assay [3], 3.67 µM; in assay [4], 4.94 µM; in [5], 2.97 µM; in assay [6] it was 3.11 µM. Besides, the TGI stood at 3.17 µM in assay [7], 3.79 µM in assay [8], 5.54 µM in [9] and 9.58 µM in [10].
Turning to `CCCCCCCC/C=C/CCCCCCCC1=NC(C)(C)CN1C(C)C`, the GI50 was 1.45 µM in assay [1]; 1.7 µM in assay [2]; 1.51 µM in assay [3]; 1.55 µM in assay [4]; 1.59 µM in assay [5]; 1.53 µM in assay [6]. In addition, the GI50 in assay [7] was 1.61 µM; in assay [9], 1.58 µM; in [10], 1.56 µM. Besides, the TGI in assay [1] came to 2.79 µM; in [2], 3.07 µM; in assay [3] it was 2.9 µM; in assay [4] it was 3.56 µM; in assay [5], 2.97 µM; in assay [6], 2.87 µM. Moreover, the TGI in assay [7] was 2.96 µM; in assay [9], 3.74 µM; in assay [10], 3.27 µM.
Turning to `COc1ccc(-c2cnc3ccnn3c2-c2cc(OC)c(OC)c(OC)c2)cc1`, the GI50 in [1] was 27.3 µM; in assay [2], 5.86 µM; in assay [3], 2.12 µM; in [4] it was 2.37 µM; in assay [5], 4.3 µM; in [6], 1.99 µM. Moreover, the GI50 in assay [7] was 4.53 µM; in assay [8], 4.14 µM; in [9], 12.2 µM. Also, the TGI in assay [1] is more than 100 µM; in assay [2] it was more than 100 µM; in assay [3], more than 100 µM; in assay [4] it was more than 100 µM; in [5] it was 65.7 µM; in [6] it was 6.11 µM. The TGI in assay [7] was more than 100 µM; in assay [8], more than 100 µM; in [9] it was 95.4 µM.
Take `CCOC(=O)c1c(-c2ccccc2)[n+](=O)c2ccc(Cl)cc2n1[O-]`: the GI50 in assay [1] was 4.55 µM; in assay [2], 4.28 µM; in assay [3], 3.89 µM; in assay [4], 4.63 µM; in [5], 3.58 µM; in assay [6], 2.97 µM. The GI50 in [7] is 1.63 µM; in assay [8], 2.44 µM; in assay [9], 3.87 µM; in [10], 2.4 µM. The TGI turned out to be 23.6 µM in assay [1]; 32.2 µM in assay [2]; 13.6 µM in [3]; 31.8 µM in assay [4]; 13.8 µM in assay [5]; 13.1 µM in assay [6]. Further, the TGI in assay [7] was 3.33 µM; in [8] it was 6.62 µM; in assay [9], 15.7 µM; in assay [10] it was 8.32 µM.
Regarding `CN1CCC[C@@H]1CCO[C@](C)(c1ccccc1)c1ccc(Cl)cc1`, the GI50 in assay [1] was 10.7 µM; in assay [2], 9 µM; in [3], 4.4 µM; in assay [4] it was 12.2 µM; in [5], 2.79 µM; in [6], 9.94 µM. Further, the GI50 in assay [7] is 1.54 µM; in assay [9], 9.64 µM; in [10], 10.9 µM. In addition, the TGI in assay [1] was determined as 23.3 µM; in [2], 21.5 µM; in assay [3], 16 µM; in assay [4] it was 36 µM; in assay [5], 13.5 µM; in assay [6], 23.7 µM. In addition, the values for the TGI in assay [7], in [9] and in assay [10] were 2.89 µM, 22.4 µM and 25.2 µM, respectively.
Take `COc1ccc(-c2nn(-c3cccc(NC(=O)Nc4ccc(Cl)c(C(F)(F)F)c4)c3)cc2-c2ccncc2)cc1Cl`: the GI50 in assay [1] was 4.8 µM; in assay [2], 4.21 µM; in [3], 2.37 µM; in assay [4] it was 2.27 µM; in [5] it was 2.29 µM; in [6], 2.04 µM. The GI50 was 1.69 µM in [7], 1.43 µM in assay [8] and 2.08 µM in assay [9]. The TGI in assay [1] came to 92.2 µM; in [2] it was 35.9 µM; in [3] it was 19.2 µM; in assay [4] it was 9.3 µM; in assay [5], 7.35 µM; in assay [6] it was 5.11 µM. The results for the TGI in assay [7], in assay [8] and in assay [9] were 3.61 µM, 5.29 µM and 4.83 µM, respectively.
`CC#CS(=O)(=O)c1ccccc1`: the TGI in [1] stood at 17.4 µM; in assay [2], 35.2 µM; in [3], 9.4 µM; in assay [4] it was 41.8 µM; in assay [5] it was 22.8 µM; in assay [6] it was 15.5 µM. Further, the TGI in assay [7] came to 15.4 µM; in [9], 20.8 µM; in assay [10], 35.4 µM.
Consider `COc1cc(/C=C2\CN(C)C/C(=C\c3cc(OC)c(OC)c(OC)c3)C2=O)cc(OC)c1OC`, for which the GI50 was 0.247 µM in assay [1]; 0.346 µM in [2]; 0.214 µM in assay [3]; 1.01 µM in assay [4]; 0.336 µM in assay [5]; 0.379 µM in assay [6]. Further, the figures for the GI50 in assay [7], in assay [8] and in [9] were 0.204 µM, 0.266 µM and 0.295 µM, respectively. Also, the TGI in assay [1] is 0.771 µM; in assay [2], 1.6 µM; in [3], 0.555 µM; in assay [4], more than 63.5 µM; in [5], 1.03 µM; in assay [6], 1.33 µM. The results for the TGI in [7], in [8] and in [9] were 0.434 µM, 0.841 µM and 0.923 µM, respectively.
As to `O=C(Nc1ccccc1)Nc1cccc(-n2cc(-c3ccncc3)c(-c3ccc(O)c(Cl)c3)n2)c1`, the GI50 was 6.91 µM in [1]; 5.73 µM in assay [2]; 2.84 µM in [3]; 3.24 µM in [4]; 1.98 µM in assay [5]; 1.96 µM in [6]. The GI50 in assay [7] is 1.78 µM; in [8], 2.35 µM; in assay [9] it was 3.29 µM. Besides, the TGI in [1] was 54.6 µM; in assay [2] it was 68.8 µM; in assay [3] it was more than 100 µM; in [4], more than 100 µM; in assay [5], 5.23 µM; in assay [6], 4.5 µM. In addition, the TGI was 3.35 µM in assay [7], 6.13 µM in [8] and 12.7 µM in assay [9].
As to `O=C1N=C(c2ccccc2)OC1C(=O)c1ccccc1` (stereo not drawn), the TGI in assay [1], in assay [2], in assay [3], in assay [4], in [5] and in assay [7] was more than 100 µM each time. Also, the TGI in assay [8], in [9] and in [10] was more than 100 µM in each case.
Take `COc1cc(/C=C/C(=O)c2ccc(Nc3ncnc4ccccc34)cc2)cc(OC)c1`: the GI50 in assay [1] was 8.4 µM; in assay [2] it was 3.06 µM; in [3] it was 7.63 µM; in assay [4] it was 8.21 µM; in [5], 13.5 µM; in assay [6] it was 4.98 µM. Further, the GI50 is 0.227 µM in [8], 3.34 µM in [9] and 51.9 µM in assay [10]. Also, the TGI amounted to 24.4 µM in assay [1]; 12.2 µM in [2]; 48.7 µM in assay [3]; 69.8 µM in assay [4]; 49.1 µM in [5]; 18 µM in assay [6]. Moreover, the TGI is 0.715 µM in assay [8], 11.9 µM in [9] and more than 100 µM in assay [10].
As for `COc1ccc(/C=C2\CN(Cc3cn(CCCNc4ccnc5cc(Cl)ccc45)nn3)C/C(=C\c3ccc(OC)c(OC)c3)C2=O)cc1OC`, the GI50 is 2.95 µM in assay [1]; 0.743 µM in assay [2]; 2.03 µM in assay [3]; 1.99 µM in assay [4]; 1.7 µM in [5]; 1.99 µM in [6]. The values for the GI50 in [7], in assay [8] and in assay [9] were 2.71 µM, 1.46 µM and 1.81 µM, respectively. The TGI in assay [1] was 7.92 µM; in assay [2], 3.09 µM; in [3], 5.02 µM; in assay [4], 9.97 µM; in assay [5] it was 3.48 µM; in [6], 4.76 µM. The TGI in assay [7] was determined as 10.2 µM; in assay [8], 5.65 µM; in assay [9] it was 3.79 µM.
Consider `O=C1OCc2c1cc(F)cc2[N+](=O)[O-]`, for which the GI50 in assay [2], in assay [3], in [4], in assay [5], in assay [6] and in assay [7] was more than 100 µM in each case. The GI50 in [8] and in assay [9] was more than 100 µM each time. Besides, the TGI in assay [2], in [3], in [4], in [5], in assay [6] and in assay [7] was more than 100 µM throughout. In addition, the TGI in assay [8] and in [9] was more than 100 µM each time.
